Data from PMC3401633 (Bioorganic & medicinal chemistry letters, 2011).

Molecular target: human isoprenylcysteine carboxyl methyltransferase (hIcmt) (Homo sapiens, UniProt O60725)
Experiment: vapor diffusion assay
Assay type: biochemical
Conditions: VDA

Sequence of human isoprenylcysteine carboxyl methyltransferase (hIcmt) (O60725 whole entry, the tested form may be a part): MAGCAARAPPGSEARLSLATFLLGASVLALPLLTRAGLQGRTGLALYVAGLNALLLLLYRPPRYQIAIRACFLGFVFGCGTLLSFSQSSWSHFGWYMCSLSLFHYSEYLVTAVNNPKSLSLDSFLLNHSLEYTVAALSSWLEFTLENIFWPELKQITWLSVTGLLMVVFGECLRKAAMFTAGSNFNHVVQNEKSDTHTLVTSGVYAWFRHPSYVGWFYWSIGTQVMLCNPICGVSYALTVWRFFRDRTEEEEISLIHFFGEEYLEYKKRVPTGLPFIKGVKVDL

hIcmt inhibition in words	Structure (SMILES)
poor hIcmt inhibitors	CC(C)=CCC/C(C)=C/CC/C(C)=C/CSC[C@H](NS(=O)(=O)c1c(C)c(C)c(C)c(C)c1C)C(=O)O [Compound 6a]
remarkably poor hIcmt inhibitor	COC(=O)[C@H](CSC/C=C(\C)CC/C=C(\C)CCC=C(C)C)NS(=O)(=O)c1cccs1 [Compound 10]
